Reference: US20230321067A1, “DOSING REGIMEN COMPRISING 3-(1-OXOISOINDOLIN-2-YL)PIPERIDINE-2,6-DIONE DERIVATIVES” (Novartis AG, priority 2020, published 2023)

Assays:
[1] = tested on: isolated primary human T cells; experiment: In vitro T cell dysfunction/exhaustion assay (sequential TCR stimulation); assay type: cell-based
Source text: Although the specific transcriptional targets of IKZF2 remain to be defined, IKZF2 binds to and represses transcription from the IL-2 promoter region (Baine 2013). […] Finally, an in vitro assay recapitulating hallmarks of T cell dysfunction/exhaustion, by sequential TCR stimulation of isolated primary human T cells, was used to test the hypothesis that […] would rescue the exhausted phenotype and enhance Teff cell activity. […] In addition to IKZF1, other known cereblon substrates including translation termination factor G1 to S phase transition 1 (GSPT1) are not degraded by I-57 (FIG. 1).

TMEM97 = target: T1, TMEM97 (Homo sapiens, UniProt Q5BJF2); experiment: Whole cell proteomic analysis in 293T cells: TMEM97; assay type: cell-based
T1 construct: endogenous in cells; host or cells: 293T
Method: Other potential degradation targets of I-57 were evaluated in 293T cells using whole cell proteomic analysis. […] Subsequent analyses have confirmed that FIZ1 is degraded by about 50% at a 10 μM concentration of I-57 ([I-57 Investigator's Brochure]). […] FIZ1 is expressed in the neural retina where it transcriptionally represses the differentiation of photoreceptors. FIZ1 is also expressed in non-ocular tissues with unknown function.

[2] = In vivo non-clinical PK, rat
Method: The in vivo non-clinical PK profile of I-57 was investigated in mouse, rat, dog and cynomolgus monkey using I-57 free base. […] After p.o. administration, the absorption of I-57 was rapid with peak blood concentration (Tmax) occurring between 1 and 4 hours. […] In high dose PK and toxicology studies with I-57 the exposures in mouse, rat and monkey increased with dose.

CYP2D6 = CYP2D6 (Homo sapiens, UniProt P10635); experiment: CYP inhibition: CYP2D6; assay type: in vitro ADME
CYP1A2 = CYP1A2 (Homo sapiens, UniProt P05177); experiment: CYP inhibition: CYP1A2; assay type: in vitro ADME; conditions: I-57 concentrations of up to 100 μM
CYP2C8 [3] = target: T2, CYP2C8 (Homo sapiens, UniProt P10632); experiment: CYP inhibition: CYP2C8; assay type: in vitro ADME; conditions: I-57 concentrations of up to 100 μM
CYP2C8 [4] = target: T2, CYP2C8; experiment: Time-dependent CYP inhibition: CYP2C8; assay type: in vitro ADME; conditions: I-57 concentrations of up to 100 μM
[5] = Toxicology studies: CNS and respiratory signs; assay type: in vivo
Source text: The non-clinical safety profile of I-57 was established in vitro, and in vivo in rats and cynomolgus monkeys in studies up to 4-weeks duration. Based on the outcome of these studies, QTc interval prolongation was identified as the principal safety signal for I-57. There were other toxicities such as diarrhea and vomiting in monkeys, and mortality, clinical signs and target organ toxicities in rats; however, these occurred at exposures far above those expected to result in clinical activity.

IKZF2 [6] = target: T3, IKZF2 (Homo sapiens, UniProt Q96SW2+Q9UKS7); experiment: Multi-dose PK/PD study in human PBMC adoptive transfer mouse model harboring MDA-MB231 xenografts: IKZF2 expression in human CD4+FOXP3+ regulatory T cells (FIG. 6, 7); assay type: in vivo; parameters: endogenous in cells; host or cells: primary human PBMCs; conditions: 14 daily oral doses of 0.3, 1, 3 and 30 mg/kg, hPBMC AdT mouse model
Method: FIG. 6 is a pictorial representation of the multi-dose PK/PD study design in the human PBMC adoptive transfer mouse model harboring MDA-MB231 xenografts. Fourteen consecutive daily doses of Compound I-57 was administered at 0.3 mg/kg, 1 mg/kg, 3 mg/kg or 30 mg/kg.
FIG. 7 is a graph showing the change in the IKZF2 expression in human CD4+FOXP3+ regulatory T cells isolated from MDA-MB231 tumor xenografts (Tumor) or blood (Periphery) following 14 daily oral doses of 0.3, 1, 3 and 30 mg/kg Compound I-57 administered to the hPBMC AdT model.

IKZF2 [7] = target: T3, IKZF2; experiment: IKZF2 in human Tregs (tumor, blood) by flow cytometry, hPBMC AdT model; assay type: in vivo, NSG mice with human PBMCs; parameters: endogenous in cells; host or cells: human lymphocytes (CD4+FOXP3+ Tregs; total tumor-infiltrating lymphocytes) from healthy-donor PBMC transferred into NSG mice
Method: The PK/PD relationship of I-57 was examined in the hPBMC AdT model system. Human PBMCs were adoptively transferred into female NSG mice harboring established MDA-MB231 xenografts (FIG. 6). This model was selected based on the observation that IKZF2 positive Tregs (CD4+FOXP3+) were readily identifiable in peripheral blood and infiltrated in the tumor xenografts.
The impact of I-57 on IKZF2 protein expression in human Tregs in the periphery and infiltrated in MDA-MB231 xenografts was assessed via flow cytometry at multiple time points after the last I-57 dose. […] Maximum effects were generally observed 4-16 h post dose. At a given dose level, the magnitude and duration of IKZF2 reduction in Tregs was generally consistent across tissues (tumor, spleen and blood).
Based on the data from this hPBMC AdT mouse model, unbound I-57 (73% percent plasma binding in the mouse) exposures (AUCinf) of 7, 30, 157 and 3474 ng*h/mL are required to achieve the reduction of IKZF2 positivity (via flow cytometry) in tumor Tregs by 31, 43, 56, and 75%, respectively. The relationship between the magnitude and duration of I-57-mediated IKZF2 degradation and subsequent modulation of therapeutically relevant downstream biology is not yet well understood.

IKZF2 [8] = target: T3, IKZF2; experiment: IKZF2 in tumor-infiltrating lymphocytes by IHC, hPBMC AdT model; assay type: in vivo, NSG mice with human PBMCs; parameters: endogenous in cells; host or cells: human lymphocytes (CD4+FOXP3+ Tregs; total tumor-infiltrating lymphocytes) from healthy-donor PBMC transferred into NSG mice; conditions: 24 h post the 14th dose
Method: IKZF2 protein levels in total tumor-infiltrating lymphocytes were also assessed by immunohistochemistry (IHC) at 24 h post the 14th dose of 1, 3 or 30 mg/kg I-57. […] Overall, IKZF2 degradation assessed by IHC was generally consistent with our findings in Tregs by flow cytometry, though dose dependency was less apparent. Together, the data support the finding of profound I-57-mediated IKZF2 degradation in tumor-infiltrating lymphocytes (FIG. 8A and FIG. 8B).

T3 sequence (Q9UKS7 whole entry): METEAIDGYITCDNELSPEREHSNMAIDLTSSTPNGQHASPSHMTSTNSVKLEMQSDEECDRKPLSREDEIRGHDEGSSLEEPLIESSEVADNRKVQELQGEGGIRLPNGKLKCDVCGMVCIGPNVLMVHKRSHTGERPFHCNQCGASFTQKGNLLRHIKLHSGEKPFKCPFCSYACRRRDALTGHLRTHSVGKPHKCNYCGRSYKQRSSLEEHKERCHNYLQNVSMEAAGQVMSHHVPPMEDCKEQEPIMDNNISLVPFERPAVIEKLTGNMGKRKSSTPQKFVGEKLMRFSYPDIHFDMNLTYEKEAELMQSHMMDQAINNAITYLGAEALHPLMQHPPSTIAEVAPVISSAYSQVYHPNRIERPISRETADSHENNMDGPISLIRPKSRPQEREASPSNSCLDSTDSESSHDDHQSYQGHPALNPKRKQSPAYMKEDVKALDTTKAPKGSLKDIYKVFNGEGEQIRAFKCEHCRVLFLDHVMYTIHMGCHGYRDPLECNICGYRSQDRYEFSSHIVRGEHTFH
T3 sequence (Q96SW2 whole entry): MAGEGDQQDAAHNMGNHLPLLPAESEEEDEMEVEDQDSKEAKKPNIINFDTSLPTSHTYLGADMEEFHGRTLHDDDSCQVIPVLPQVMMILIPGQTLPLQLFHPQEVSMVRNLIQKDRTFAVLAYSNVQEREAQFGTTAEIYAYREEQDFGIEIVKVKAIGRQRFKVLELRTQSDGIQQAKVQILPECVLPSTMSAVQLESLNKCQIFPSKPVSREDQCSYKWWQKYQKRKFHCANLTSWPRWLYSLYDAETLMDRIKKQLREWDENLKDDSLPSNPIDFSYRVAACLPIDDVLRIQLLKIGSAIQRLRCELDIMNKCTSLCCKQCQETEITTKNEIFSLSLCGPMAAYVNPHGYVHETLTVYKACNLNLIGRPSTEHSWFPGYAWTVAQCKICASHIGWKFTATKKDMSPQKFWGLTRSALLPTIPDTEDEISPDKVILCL
T3 sequence (Q16531 whole entry partner): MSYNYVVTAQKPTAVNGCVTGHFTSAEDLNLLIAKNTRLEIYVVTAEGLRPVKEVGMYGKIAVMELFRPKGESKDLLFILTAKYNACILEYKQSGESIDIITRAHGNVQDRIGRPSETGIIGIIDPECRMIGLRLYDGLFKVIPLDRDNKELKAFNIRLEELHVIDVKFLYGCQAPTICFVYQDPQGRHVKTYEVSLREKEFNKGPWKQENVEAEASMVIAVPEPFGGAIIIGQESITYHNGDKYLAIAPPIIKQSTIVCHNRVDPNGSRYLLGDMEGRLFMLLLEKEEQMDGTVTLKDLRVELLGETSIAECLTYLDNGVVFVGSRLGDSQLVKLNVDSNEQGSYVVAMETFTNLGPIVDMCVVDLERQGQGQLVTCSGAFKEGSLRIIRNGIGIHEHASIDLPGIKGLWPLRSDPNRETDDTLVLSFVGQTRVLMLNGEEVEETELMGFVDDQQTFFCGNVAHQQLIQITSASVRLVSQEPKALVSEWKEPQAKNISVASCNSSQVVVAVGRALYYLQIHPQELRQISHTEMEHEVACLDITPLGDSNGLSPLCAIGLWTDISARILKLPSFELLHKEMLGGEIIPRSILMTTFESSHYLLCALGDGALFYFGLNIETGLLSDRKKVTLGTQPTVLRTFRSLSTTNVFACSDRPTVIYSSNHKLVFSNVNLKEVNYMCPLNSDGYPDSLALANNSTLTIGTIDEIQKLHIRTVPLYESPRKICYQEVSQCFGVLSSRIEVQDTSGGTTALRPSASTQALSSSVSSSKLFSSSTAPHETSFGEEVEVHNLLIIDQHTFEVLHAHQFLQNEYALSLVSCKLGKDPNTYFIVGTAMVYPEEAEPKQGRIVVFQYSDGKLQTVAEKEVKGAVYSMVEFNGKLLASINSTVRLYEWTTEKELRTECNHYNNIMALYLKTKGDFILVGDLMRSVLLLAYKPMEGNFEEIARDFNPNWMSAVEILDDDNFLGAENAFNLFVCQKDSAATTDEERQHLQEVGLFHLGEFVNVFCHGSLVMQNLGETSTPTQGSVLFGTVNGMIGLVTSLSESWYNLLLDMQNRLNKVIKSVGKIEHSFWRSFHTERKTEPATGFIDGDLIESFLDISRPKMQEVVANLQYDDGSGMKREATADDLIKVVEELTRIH
T2 sequence (P10632 whole entry): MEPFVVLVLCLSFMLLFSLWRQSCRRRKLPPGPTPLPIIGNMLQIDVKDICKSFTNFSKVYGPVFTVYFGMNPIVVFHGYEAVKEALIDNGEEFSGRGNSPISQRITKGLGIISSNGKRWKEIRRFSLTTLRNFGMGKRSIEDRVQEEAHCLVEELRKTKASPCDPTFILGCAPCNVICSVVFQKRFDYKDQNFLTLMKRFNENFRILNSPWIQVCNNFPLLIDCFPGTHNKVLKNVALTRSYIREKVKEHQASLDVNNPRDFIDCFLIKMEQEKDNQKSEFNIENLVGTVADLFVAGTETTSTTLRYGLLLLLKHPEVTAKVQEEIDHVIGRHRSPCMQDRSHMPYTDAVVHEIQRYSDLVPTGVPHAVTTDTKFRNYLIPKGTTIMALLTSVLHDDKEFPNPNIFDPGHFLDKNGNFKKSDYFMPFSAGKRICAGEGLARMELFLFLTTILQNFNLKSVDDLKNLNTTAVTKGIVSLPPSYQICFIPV
T1 sequence (Q5BJF2 whole entry): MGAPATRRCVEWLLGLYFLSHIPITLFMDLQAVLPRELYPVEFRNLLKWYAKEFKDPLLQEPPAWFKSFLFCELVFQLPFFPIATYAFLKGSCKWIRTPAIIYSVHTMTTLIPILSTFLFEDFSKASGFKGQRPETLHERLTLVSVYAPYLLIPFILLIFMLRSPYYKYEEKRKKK
CYP2D6, sequence (P10635 whole entry): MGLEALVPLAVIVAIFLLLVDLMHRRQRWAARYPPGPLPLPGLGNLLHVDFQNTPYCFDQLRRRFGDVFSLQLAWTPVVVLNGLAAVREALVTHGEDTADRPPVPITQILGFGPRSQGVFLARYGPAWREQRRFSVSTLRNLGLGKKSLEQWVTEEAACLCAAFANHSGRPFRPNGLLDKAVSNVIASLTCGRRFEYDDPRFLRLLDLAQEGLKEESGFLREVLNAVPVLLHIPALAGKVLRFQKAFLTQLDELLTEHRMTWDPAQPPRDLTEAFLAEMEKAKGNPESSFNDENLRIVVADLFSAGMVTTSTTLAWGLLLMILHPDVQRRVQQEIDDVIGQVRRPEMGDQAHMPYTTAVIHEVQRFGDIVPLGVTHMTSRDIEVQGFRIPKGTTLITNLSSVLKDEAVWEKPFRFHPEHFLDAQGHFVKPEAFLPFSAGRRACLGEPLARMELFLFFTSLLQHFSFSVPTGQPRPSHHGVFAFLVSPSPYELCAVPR
CYP1A2, sequence (P05177 whole entry): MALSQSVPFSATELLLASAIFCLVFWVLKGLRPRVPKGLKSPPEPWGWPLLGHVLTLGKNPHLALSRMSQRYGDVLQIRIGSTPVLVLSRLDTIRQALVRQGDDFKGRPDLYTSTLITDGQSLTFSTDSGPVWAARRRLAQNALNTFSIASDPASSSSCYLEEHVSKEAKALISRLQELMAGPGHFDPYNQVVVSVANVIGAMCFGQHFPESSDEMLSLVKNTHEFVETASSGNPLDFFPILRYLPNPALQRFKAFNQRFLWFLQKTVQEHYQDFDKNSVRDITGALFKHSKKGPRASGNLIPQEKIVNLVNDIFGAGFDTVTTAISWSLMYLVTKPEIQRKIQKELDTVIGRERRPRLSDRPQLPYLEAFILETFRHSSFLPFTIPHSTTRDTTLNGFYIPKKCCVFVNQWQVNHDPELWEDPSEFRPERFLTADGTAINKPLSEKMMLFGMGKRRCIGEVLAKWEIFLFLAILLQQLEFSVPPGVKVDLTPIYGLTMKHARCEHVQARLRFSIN

## O=C1CCC(N2Cc3cc(C4CCN(Cc5ccccc5)CC4)ccc3C2=O)C(=O)N1 (centres unmarked) [Compound I-57, 3-(5-(1-benzylpiperidin-4-yl)-1-oxoisoindolin-2-yl)piperidine-2,6-dione]
[1]
  IKZF2 degradation: degraded IKZF2 in a dose-dependent manner
  interferon gamma production by IKZF2 positive cells: concomitant increase
TMEM97
  degradation of TMEM97: degraded
[2]; between 3 mg/kg and 300 mg/kg
  dose proportionality of AUC: roughly dose proportional
[2]; blood, po
  bioavailability: 90%
CYP2D6
  IC50: ~65 µM
CYP1A2
  inhibition of CYP1A2: very little and no inhibition
CYP2C8 [3]
  inhibition of CYP2C8: very little and no inhibition
CYP2C8 [4]
  time-dependent inhibition of CYP2C8: no apparent time-dependent inhibition
[5]
  CNS or respiratory signs: no CNS or respiratory signs
IKZF2 [6]; peripheral blood
  IKZF2 degradation (reduction of the percentage of IKZF2 positive Tregs): robust dose and exposure-dependent IKZF2 degradation
IKZF2 [6]; tumor (MDA-MB231 xenografts)
  IKZF2 degradation (reduction of the percentage of IKZF2 positive Tregs): robust dose and exposure-dependent IKZF2 degradation
IKZF2 [7]; flow cytometry, unbound exposure (AUCinf) 7 ng*h/mL
  reduction of IKZF2 positivity in tumor Tregs: 31%
IKZF2 [7]; flow cytometry, unbound exposure (AUCinf) 30 ng*h/mL
  reduction of IKZF2 positivity in tumor Tregs: 43%
IKZF2 [7]; flow cytometry, unbound exposure (AUCinf) 157 ng*h/mL
  reduction of IKZF2 positivity in tumor Tregs: 56%
IKZF2 [7]; flow cytometry, unbound exposure (AUCinf) 3474 ng*h/mL
  reduction of IKZF2 positivity in tumor Tregs: 75%
IKZF2 [7]; post dose, hPBMC AdT model
  time of maximum effects on IKZF2 positive Tregs: 4 to 16 h
IKZF2 [7]; tumor and peripheral blood, after 14 daily doses, flow cytometry
  IKZF2 degradation (reduction of the percentage of IKZF2 positive Tregs): robust dose and exposure-dependent IKZF2 degradation
IKZF2 [8]; 30 mg/kg
  IKZF2 degradation in total tumor-infiltrating lymphocytes: approximately 85%
IKZF2 [8]; all dose levels (1, 3 or 30 mg/kg)
  IKZF2 levels in total tumor-infiltrating lymphocytes: Robust reduction in IKZF2 levels
